pIC50: −log10 of the molar value.
Tests used:
[1] = target: T1, Glycogen phosphorylase, liver form (Homo sapiens, UniProt P06737); test: Inhibition of human liver glycogen phosphorylase a by coupled kinetic fluorescent intensity assay
T1 sequence (P06737 whole entry): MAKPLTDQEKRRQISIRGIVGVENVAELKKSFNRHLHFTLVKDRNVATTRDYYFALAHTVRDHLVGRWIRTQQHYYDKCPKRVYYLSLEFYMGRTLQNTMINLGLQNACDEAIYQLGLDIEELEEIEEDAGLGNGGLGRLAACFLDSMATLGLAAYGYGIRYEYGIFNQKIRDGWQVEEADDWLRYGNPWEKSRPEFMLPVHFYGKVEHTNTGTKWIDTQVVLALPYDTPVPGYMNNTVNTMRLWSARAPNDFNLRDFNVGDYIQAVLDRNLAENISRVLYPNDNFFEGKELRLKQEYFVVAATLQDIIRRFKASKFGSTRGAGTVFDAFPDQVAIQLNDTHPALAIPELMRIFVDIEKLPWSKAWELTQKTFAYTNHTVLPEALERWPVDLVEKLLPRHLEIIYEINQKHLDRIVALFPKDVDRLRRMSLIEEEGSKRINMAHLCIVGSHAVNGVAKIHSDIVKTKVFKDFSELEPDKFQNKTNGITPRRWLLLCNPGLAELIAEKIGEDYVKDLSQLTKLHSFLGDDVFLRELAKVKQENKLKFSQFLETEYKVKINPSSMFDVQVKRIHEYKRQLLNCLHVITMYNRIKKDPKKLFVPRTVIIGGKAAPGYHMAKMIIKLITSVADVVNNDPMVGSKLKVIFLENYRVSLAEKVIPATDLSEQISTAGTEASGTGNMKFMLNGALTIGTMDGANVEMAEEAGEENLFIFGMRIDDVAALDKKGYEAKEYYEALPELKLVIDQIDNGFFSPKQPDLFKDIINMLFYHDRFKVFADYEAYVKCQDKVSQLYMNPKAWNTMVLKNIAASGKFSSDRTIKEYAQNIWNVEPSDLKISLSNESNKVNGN

[2] = target: T1, Glycogen phosphorylase, liver form; test: Inhibition of human glycogen phosphorylase a in HepG2 cells assessed as inhibition of forskolin-stimulated glycogenolysis; type: cell-based
[3] = system: Rattus norvegicus; test: Reduction of glucagon-induced glucose AUC in CD rat at 5 mg/kg, po preincubated for 2 hrs before glucagon challenge; type: functional; design: scale not given: the % may be the effect or the level left
[4] = system: Rattus norvegicus; test: Reduction of glucagon-induced glucose AUC in CD rat at 2 mg/kg, po preincubated for 2 hrs before glucagon challenge; type: functional; design: scale not given: the % may be the effect or the level left
[5] = system: Mus musculus; test: Antidiabetic effect in ob/ob B6.V-lep[ob]/J mouse assessed as decrease in blood glucose level at 15 mg/kg, po after 3 hrs; type: functional
[6] = Clearance in rat at 1 mg/kg, iv and 5 mg/kg, po; type: ADME, organism-based; conditions: in vivo
[7] = Half life in rat at 1 mg/kg, iv and 5 mg/kg, po; type: ADME, organism-based; conditions: in vivo
[8] = Bioavailability in rat at 1 mg/kg, iv and 5 mg/kg, po; type: ADME, organism-based; conditions: in vivo
[9] = Cmax in rat at 5 mg/kg, po; type: ADME, organism-based; design: dose 5 mg/kg, route oral; conditions: in vivo

Row | Compound | pIC50 [1] | pIC50 [2] | further results
1 | CCc1cc(C)c(NC(=O)Nc2cc(F)ccc2C(=O)N[C@H](C(=O)O)C2CCCCC2)c(C)c1 | 7.06 | 6.29 | –
2 | Cc1cc(C)c(NC(=O)Nc2cc(-c3ccc(F)c(F)c3)ccc2C(=O)N[C@H](C(=O)O)[C@@H](C)OC(C)(C)C)c(C)c1 | 7.89 | 6.77 | –
3 | Cc1cc(C)c(NC(=O)Nc2cc(F)ccc2C(=O)N[C@H](C(=O)O)[C@@H](C)OC(C)(C)C)c(C)c1 | 6.30 | 5.74 | –
4 | Cc1cc(CC2CC2)cc(C)c1NC(=O)Nc1cc(-c2cccc(F)c2)ccc1C(=O)N[C@H](C(=O)O)[C@@H](C)OC(C)(C)C | – | 6.84 | Activity [3]: 65%; Activity [4]: 62%; Activity [5]: 103 mg/dL; clearance [6]: 15 mL/min/kg; half-life [7]: 2.3 h; bioavailability [8]: 27%; Cmax [9]: 536 ng/mL
5 | Cc1cc(C)c(NC(=O)Nc2cc(-c3cccc(F)c3)ccc2C(=O)N[C@H](C(=O)O)[C@@H](C)OC(C)(C)C)c(C)c1 | 7.82 | 6.98 | Activity [3]: 32%; Activity [4]: 10%
6 | Cc1cccc(C)c1NC(=O)Nc1cc(F)ccc1C(=O)N[C@H](C(=O)O)C1CCCCC1 | 5.97 | 5.08 | –
7 | COc1ccc(-c2ccc(C(=O)N[C@H](C(=O)O)[C@@H](C)OC(C)(C)C)c(NC(=O)Nc3c(C)cc(C)cc3C)c2)cc1 | 8.52 | 7.47 | –
8 | CCCc1cc(C)c(NC(=O)Nc2cc(-c3ccc(OC)cc3)ccc2C(=O)N[C@H](C(=O)O)[C@@H](C)OC(C)(C)C)c(C)c1 | – | 6.87 | –
9 | Cc1cc(CC2CC2)cc(C)c1NC(=O)Nc1cc(F)ccc1C(=O)N[C@H](C(=O)O)C1CCCCC1 | 7.89 | 6.42 | –
10 | CCCc1cc(C)c(NC(=O)Nc2cc(F)ccc2C(=O)N[C@H](C(=O)O)C2CCCCC2)c(C)c1 | 7.72 | 6.64 | –
11 | CCCc1cc(C)c(NC(=O)Nc2cc(-c3ccc(F)c(F)c3)ccc2C(=O)N[C@H](C(=O)O)[C@@H](C)OC(C)(C)C)c(C)c1 | 8.15 | 6.74 | –
12 | Cc1cc(C)c(NC(=O)Nc2ccccc2C(=O)N[C@H](C(=O)O)[C@@H](C)OC(C)(C)C)c(C)c1 | 6.27 | 5.77 | –
13 | Cc1cc(C)c(NC(=O)Nc2cc(-c3ccc(F)cc3)ccc2C(=O)N[C@H](C(=O)O)[C@@H](C)OC(C)(C)C)c(C)c1 | 8.15 | 7.06 | –
14 | Cc1cc(C)c(NC(=O)Nc2cc(F)ccc2C(=O)N[C@H](C(=O)O)C2CCCCC2)c(C)c1 | 6.84 | 5.99 | –
15 | CCCc1cc(C)c(NC(=O)Nc2cc(F)ccc2C(=O)N[C@H](C(=O)O)[C@@H](C)OC(C)(C)C)c(C)c1 | 8.00 | 6.83 | –
16 | Cc1cc(CC2CC2)cc(C)c1NC(=O)Nc1cc(F)ccc1C(=O)N[C@H](C(=O)O)[C@@H](C)OC(C)(C)C | 8.40 | 6.88 | Activity [3]: 36%; Activity [4]: 22%
17 | CCCCc1cc(C)c(NC(=O)Nc2cc(F)ccc2C(=O)N[C@H](C(=O)O)C2CCCCC2)c(C)c1 | 7.31 | 6.15 | –
18 | CCCc1cc(C)c(NC(=O)Nc2cc(-c3cccc(F)c3)ccc2C(=O)N[C@H](C(=O)O)[C@@H](C)OC(C)(C)C)c(C)c1 | 8.40 | 6.81 | –
19 | COc1cccc(-c2ccc(C(=O)N[C@H](C(=O)O)[C@@H](C)OC(C)(C)C)c(NC(=O)Nc3c(C)cc(C)cc3C)c2)c1 | 8.10 | 6.96 | –
20 | Cc1cc(C)c(NC(=O)Nc2cc(-c3ccccc3)ccc2C(=O)N[C@H](C(=O)O)[C@@H](C)OC(C)(C)C)c(C)c1 | 8.00 | 6.90 | –
21 | Cc1cc(C)c(NC(=O)Nc2cc3ccccc3cc2C(=O)N[C@H](C(=O)O)[C@@H](C)OC(C)(C)C)c(C)c1 | – | – | Activity [3]: 25%
22 | COc1ccccc1-c1ccc(C(=O)N[C@H](C(=O)O)[C@@H](C)OC(C)(C)C)c(NC(=O)Nc2c(C)cc(C)cc2C)c1 | 7.55 | 6.45 | –

Source: ChEMBL document CHEMBL1136849, “Anthranilimide based glycogen phosphorylase inhibitors for the treatment of type 2 diabetes. Part 3: X-ray crystallographic characterization, core and urea optimization and in vivo efficacy” (Bioorg Med Chem Lett, 2009)
